Activity calls are given as the source filed them. The rule behind the calls is not given here.
What was measured:
[1] = system: HT-29; assay: cells; settings: Homo sapiens, HT-29, 72 h
[2] = system: A549; assay: cells; settings: Homo sapiens, A549, 72 h
Description: Antiproliferative activity against human A549 cells after 72 hrs by MTT assay

[3] = system: SMMC-7721; assay: Antiproliferative activity against human SMMC7721 cells after 72 hrs by MTT assay; assay type: functional, cell-based; settings: SMMC-7721, 72 h
[4] = system: MKN-45; assay: cells; settings: Homo sapiens, MKN-45, 72 h
Description: Antiproliferative activity against human MKN45 cells after 72 hrs by MTT assay

[5] = system: NCI-H460; assay: Antiproliferative activity against human H460 cells after 72 hrs by MTT assay; assay type: functional, cell-based; settings: NCI-H460, 72 h
[6] = system: A549; assay: Potency index, ratio of CA-4 IC50 to compound IC50 for human A549 cells; assay type: functional
[7] = system: A549; assay: Induction of microtubule depolymerization in human A549 cells assessed as scattered short microtubule fragment formation in cytoplasm at 30 nM after 24 hrs by DAPI staining based immunofluorescence microscopic method; assay type: cell-based
[8] = system: NCI-H460; assay: Potency index, ratio of CA-4 IC50 to compound IC50 for human H460 cells; assay type: functional
[9] = system: HT-29; assay: Potency index, ratio of crolibulin IC50 to compound IC50 for human HT-29 cells; assay type: functional
[10] = system: A549; assay: Potency index, ratio of crolibulin IC50 to compound IC50 for human A549 cells; assay type: functional

Row | Compound | IC50 [1] [µM] | IC50 [2] [µM] | IC50 [3] [µM] | IC50 [4] [µM] | IC50 [5] [µM] | Ratio IC50 [6] | Activity [7] | Ratio IC50 [8] | Ratio IC50 [9] | Ratio IC50 [10]
1 | COc1cc(-c2cc(-c3ccc(F)cc3)nc(-n3cccc3CN3CCCC3)c2C#N)cc(OC)c1OC | 1.2 | 11 | 36.8 | 35.8 | 8.31 |  |  |  |  | 
2 | CCNCc1cccn1-c1nc(-c2ccc(F)cc2)cc(-c2cc(OC)c(OC)c(OC)c2)c1C#N | 1.21 | 16.9 | 13.1 | 42.2 | 1.54 |  |  |  |  | 
3 | COc1cc(-c2cc(-c3ccc(F)cc3)nc(-n3cccc3CN(C)C)c2C#N)cc(OC)c1OC | 0.1 | 0.17 | 20.9 | 10.4 | 0.31 |  |  |  |  | 
4 | COc1cc(-c2cc(-c3ccc(F)cc3F)nc(-n3cccc3CN3CCC(C)CC3)c2C#N)cc(OC)c1OC | 8.76 | 8.07 | 7.73 | 5.91 | 5.3 |  |  |  |  | 
5 | COc1ccc(-c2cc(-c3ccc(F)cc3)nc(-n3cccc3CN3CCN(C)CC3)c2C#N)c(OC)c1OC | 0.06 | 4.55 | 18.2 | 10.1 | 0.11 |  |  |  |  | 
6 | COc1cc(-c2cc(-c3ccc(F)cc3F)nc(-n3cccc3CN3CCN(C)CC3)c2C#N)cc(OC)c1OC | 1.77 | 4.72 | 33.9 | 39.8 | 4.53 |  |  |  |  | 
7 | COc1cc([C@H]2C(C#N)=C(N)Oc3c2ccc(N)c3N)cc(Br)c1OC [CROLIBULIN] | 0.55 | 0.39 |  | 0.17 | 0.03 |  |  |  |  | 
8 | CNCc1cccn1-c1nc(-c2ccc(F)cc2F)cc(-c2cc(OC)c(OC)c(OC)c2)c1C#N | 0.95 | 9.54 | 33.4 | 6.29 | 2.98 |  |  |  |  | 
9 | COc1cc(-c2cc(-c3ccc(F)cc3F)nc(-n3cccc3CN(C)C)c2C#N)cc(OC)c1OC | 2.51 | 10.7 | 11.7 | 7.28 | 6.18 |  |  |  |  | 
10 | COc1cc(-c2cc(-c3ccc(F)cc3)nc(-n3cccc3CNC(C)C)c2C#N)cc(OC)c1OC | 0.1 | 8.26 | 34.9 | 38.5 | 0.24 |  |  |  |  | 
11 | COc1cc(-c2cc(-c3ccc(F)cc3F)nc(-n3cccc3CN3CCOCC3)c2C#N)cc(OC)c1OC | 6.34 | 11 | 40.8 | 39.7 | 12.5 |  |  |  |  | 
12 | CCNCc1cccn1-c1nc(-c2ccc(F)cc2F)cc(-c2cc(OC)c(OC)c(OC)c2)c1C#N | 3.3 | 4.12 | 4.2 | 13.2 | 2.88 |  |  |  |  | 
13 | COc1ccc(-c2cc(-c3ccc(F)cc3)nc(-n3cccc3CN(C)C)c2C#N)c(OC)c1OC | 3.71 | 12.6 | 2.36 | 45.3 | 5.77 |  |  |  |  | 
14 | CNCc1cccn1-c1nc(-c2ccc(F)cc2)cc(-c2cc(OC)c(OC)c(OC)c2)c1C#N | 0.08 | 0.03 | 2.95 | 2.22 | 0.06 | 1.3 - 15 | Active | 1.3 - 15 | 6.9 - 13 | 6.9 - 13
15 | CNCc1cccn1-c1nc(-c2ccc(F)cc2)cc(-c2ccc(OC)c(OC)c2OC)c1C#N | 0.06 | 14.4 | 12.1 | 38.3 | 0.26 |  |  |  |  | 
16 | COc1cc(-c2cc(-c3ccc(F)cc3)nc(-n3cccc3CN3CCN(C)CC3)c2C#N)cc(OC)c1OC |  |  | 4.35 |  | 0.05 |  |  |  |  | 
17 | COc1cc(-c2cc(-c3ccc(F)cc3)nc(-n3cccc3CN3CCC(C)CC3)c2C#N)cc(OC)c1OC |  |  | 5.87 |  | 0.07 |  |  |  |  | 
18 | COc1ccc(-c2cc(-c3ccc(F)cc3)nc(-n3cccc3CN3CCC(C)CC3)c2C#N)c(OC)c1OC | 1.37 | 6.95 | 47.4 | 46.2 | 3.88 |  |  |  |  | 
19 | COc1ccc(/C=C\c2cc(OC)c(OC)c(OC)c2)cc1O [COMBRETASTATIN A4] | 0.06 | 0.45 | 1.72 | 0.21 | 0.08 |  | Active |  |  | 
20 | COc1cc(-c2cc(-c3ccc(F)cc3F)nc(-n3cccc3CN3CCCC3)c2C#N)cc(OC)c1OC | 5.86 | 10.8 | 40.3 | 43.1 | 4.29 |  |  |  |  | 
21 | COc1cc(-c2cc(-c3ccc(F)cc3F)nc(-n3cccc3CNC(C)C)c2C#N)cc(OC)c1OC | 2.78 | 16 | 21.9 | 57.5 | 4.37 |  |  |  |  | 
22 | COc1cc(-c2cc(-c3ccc(F)cc3)nc(-n3cccc3CN3CCOCC3)c2C#N)cc(OC)c1OC |  |  | 18.8 |  | 5.56 |  |  |  |  | 
23 | COc1cc(-c2cc(-c3ccc(F)cc3)nc(-n3cccc3)c2C#N)cc(OC)c1OC | 9.34 | 44.1 | 61.1 | 58.5 | 21.3 |  |  |  |  | 

From ChEMBL document CHEMBL4145506, “Synthesis and biological evaluation of 4,6-diphenyl-2-(1H-pyrrol-1-yl)nicotinonitrile analogues of crolibulin and combretastatin A-4” (Eur J Med Chem, 2018)
